Reference: patent US20260262643A1, “HERBICIDAL BENZOXAZINES” (FMC CORPORATION, priority 2022, published 2026)

Key:
barnyardgrass [1] = assay: Test C preemergence; assay type: in vivo, Echinochloa crusgalli; settings: Preemergence, 1000 g ai/ha; visual rating after 10 days, 0 to 100 scale (0 no effect, 100 complete control)
Source text: (§1) Seeds of plant species selected from barnyardgrass (Echinochloa crusgalli), blackgrass (Alopecurus myosuroides), corn (Zea mays), foxtail, giant (giant foxtail, Setaria faberi), green foxtail (Setaria viridis), goosegrass (Eleusine indica), kochia (Bassia scoparia), oat, wild (wild oat, Avena fatua), pigweed, palmer (palmer amaranth, palmer pigweed, Amaranthus palmeri), Pigweed, Redroot (redroot pigweed, Amaranthus retroflexus), ragweed (common ragweed, Ambrosia artemisiifolia), ryegrass, Italian ([…] ryegrass, Lolium multiflorum), soybean (Glycine max), and wheat (Triticum aestivum) were planted into a blend of loam soil and sand and treated preemergence with a directed soil spray using test chemicals formulated in a non-phytotoxic solvent mixture which included a surfactant. At the same time, plants selected from these crops and weed species and also galium (catchweed bedstraw, Galium aparine) and horseweed (Erigeron canadensis) were planted in pots containing the same blend of loam soil and sand and treated with postemergence applications of test chemicals formulated in the same manner. Plants ranged in height from 2 to 10 cm and were in the one- to two-leaf stage for the postemergence treatment. Treated plants and untreated controls were maintained in a greenhouse for 10 days, after which time all treated plants were compared to untreated controls and visually evaluated for injury. Plant response ratings, summarized in Table C, are based on a 0 to 100 scale where 0 is no effect and 100 is complete control. A dash (-) response means no test result.

blackgrass [2] = assay: Test C preemergence; assay type: in vivo, Alopecurus myosuroides; settings: Preemergence, 1000 g ai/ha; visual rating after 10 days, 0 to 100 scale (0 no effect, 100 complete control)
Source text: as §1

green foxtail [3] = assay: Test C preemergence; assay type: in vivo, Setaria viridis; settings: Preemergence, 1000 g ai/ha; visual rating after 10 days, 0 to 100 scale (0 no effect, 100 complete control)
Source text: as §1

kochia [4] = assay: Test C preemergence; assay type: in vivo, Bassia scoparia; settings: Preemergence, 1000 g ai/ha; visual rating after 10 days, 0 to 100 scale (0 no effect, 100 complete control)
Source text: as §1

pigweed, palmer [5] = assay: Test C preemergence; assay type: in vivo, Amaranthus palmeri; settings: Preemergence, 1000 g ai/ha; visual rating after 10 days, 0 to 100 scale (0 no effect, 100 complete control)
Source text: as §1

ragweed [6] = assay: Test C preemergence; assay type: in vivo, Ambrosia artemisiifolia; settings: Preemergence, 1000 g ai/ha; visual rating after 10 days, 0 to 100 scale (0 no effect, 100 complete control)
Source text: as §1

ryegrass, Italian [7] = assay: Test C preemergence; assay type: in vivo, Lolium multiflorum; settings: Preemergence, 1000 g ai/ha; visual rating after 10 days, 0 to 100 scale (0 no effect, 100 complete control)
Source text: as §1

barnyardgrass [8] = assay: Test C postemergence; assay type: in vivo, Echinochloa crusgalli; settings: Postemergence, 1000 g ai/ha
Source text: as §1

blackgrass [9] = assay: Test C postemergence; assay type: in vivo, Alopecurus myosuroides; settings: Postemergence, 1000 g ai/ha
Source text: as §1

green foxtail [10] = assay: Test C postemergence; assay type: in vivo, Setaria viridis; settings: Postemergence, 1000 g ai/ha
Source text: as §1

kochia [11] = assay: Test C postemergence; assay type: in vivo, Bassia scoparia; settings: Postemergence, 1000 g ai/ha
Source text: as §1

pigweed, palmer [12] = assay: Test C postemergence; assay type: in vivo, Amaranthus palmeri; settings: Postemergence, 1000 g ai/ha
Source text: as §1

ragweed [13] = assay: Test C postemergence; assay type: in vivo, Ambrosia artemisiifolia; settings: Postemergence, 1000 g ai/ha
Source text: as §1

ryegrass, Italian [14] = assay: Test C postemergence; assay type: in vivo, Lolium multiflorum; settings: Postemergence, 1000 g ai/ha
Source text: as §1

galium = assay: Test C postemergence; assay type: in vivo, Galium aparine; settings: Postemergence, 1000 g ai/ha
Source text: as §1

horseweed = assay: Test C postemergence; assay type: in vivo, Erigeron canadensis; settings: Postemergence, 1000 g ai/ha
Source text: as §1

[15] = 0 to 100 scale, 0 no effect, 100 complete control
[16] = 10 days, visual 0 to 100 scale (0 no effect, 100 complete control)

| SMILES | Plant response rating, Barnyardgrass (barnyardgrass [1]) | Plant response rating, Blackgrass (blackgrass [2]) | Plant response rating, Foxtail, Green (green foxtail [3]) | Plant response rating, Kochia (kochia [4]) | Plant response rating, Pigweed, Palmer (pigweed, palmer [5]) | Plant response rating, Ragweed (ragweed [6]) | Plant response rating, Ryegrass, Italian (ryegrass, Italian [7]) | Plant response rating, Barnyardgrass (barnyardgrass [8]; [15]) | Plant response rating, Barnyardgrass (barnyardgrass [8]; [16]) | Plant response rating, Blackgrass (blackgrass [9]; [16]) | Plant response rating, Foxtail, Green (green foxtail [10]; [16]) | Plant response rating, Kochia (kochia [11]; [16]) | Plant response rating, Pigweed, Palmer (pigweed, palmer [12]; [16]) | Plant response rating, Ragweed (ragweed [13]; [16]) | Plant response rating, Ryegrass, Italian (ryegrass, Italian [14]; [16]) | Plant response rating, Galium (galium; [16]) | Plant response rating, Horseweed (horseweed; [16]) | other results |
| --- | --- | --- | --- | --- | --- | --- | --- | --- | --- | --- | --- | --- | --- | --- | --- | --- | --- | --- |
| Cc1ccc(-c2cccc(C(=O)N3C[C@H](C)Oc4c(C)cccc43)c2)cn1 [Compound 159] | 0 | 0 | 20 | 0 | 20 | 0 | 20 | 10 |  |  |  |  |  |  |  |  |  | Plant response rating, Blackgrass (blackgrass [9]; [15]): 0; Plant response rating, Foxtail, Green (green foxtail [10]; [15]): 30; Plant response rating, Kochia (kochia [11]; [15]): 40; Plant response rating, Pigweed, Palmer (pigweed, palmer [12]; [15]): 20; Plant response rating, Ragweed (ragweed [13]; [15]): 60; Plant response rating, Ryegrass, Italian (ryegrass, Italian [14]; [15]): 40; Plant response rating, Galium (galium; [15]): 50; Plant response rating, Horseweed (horseweed; [15]): 0 |
| C[C@H]1CN(C(=O)c2cccc(-c3cncc(Cl)c3)c2)c2cccc(Cl)c2O1 [Compound 384] | 0 | 0 | 30 | 0 | 30 | 0 | 0 |  | 10 | 10 | 10 | 50 | 60 | 0 | 0 | 40 | 0 |  |
| Cc1cccc2c1O[C@@H](C)CN2C(=O)c1cccc(-n2cncc2C#N)c1 [Compound 309] | 0 | 20 | 90 | 10 | 70 | 0 | 70 |  | 10 | 0 | 10 | 40 | 70 | 30 | 10 | 70 | 30 |  |
| Cc1cccc2c1O[C@@H](C)CN2C(=O)c1cccc(-c2cn(C)nn2)c1 [Compound 247] | 0 | 0 | 0 | 0 |  | 0 | 30 | 10 |  | 0 | 30 | 0 | 10 | 0 | 0 | 20 | 20 |  |
